Results: ChEMBL document CHEMBL5303573, “Mapping human microbiome drug metabolism by gut bacteria and their genes” (Nature, 2019)

Columns and labels:
[1] = The drug is tested on Bacteroides coprophilus strain: DSM18228 for biotransformation. The drug concentrations were measured before and after a 12-h incubation by liquid-chromatography-coupled mass spectrometry (LC–MS); details: 2 µM
[2] = The drug is tested on Bacteroides finegoldii strain: DSM17565 for biotransformation. The drug concentrations were measured before and after a 12-h incubation by liquid-chromatography-coupled mass spectrometry (LC–MS); details: 2 µM
[3] = The drug is tested on Bacteroides ovatus strain: ATCC8483 for biotransformation. The drug concentrations were measured before and after a 12-h incubation by liquid-chromatography-coupled mass spectrometry (LC–MS); details: 2 µM
[4] = The drug is tested on Bacteroides sp. WH2 strain: WH2 for biotransformation. The drug concentrations were measured before and after a 12-h incubation by liquid-chromatography-coupled mass spectrometry (LC–MS); details: bacteroides sp. wh2, 12 h, 2 µM
[5] = The drug is tested on Anaerococcus hydrogenalis strain: DSM7454 for biotransformation. The drug concentrations were measured before and after a 12-h incubation by liquid-chromatography-coupled mass spectrometry (LC–MS); details: 2 µM
[6] = The drug is tested on Clostridium asparagiforme strain: DSM15981 for biotransformation. The drug concentrations were measured before and after a 12-h incubation by liquid-chromatography-coupled mass spectrometry (LC–MS); format: ADME; parameters: dose 2 uM, timepoint 0 vs 12 hours; details: enterocloster asparagiformis, 2 µM
[7] = The drug is tested on Clostridium sp. strain: fecal isolate for biotransformation. The drug concentrations were measured before and after a 12-h incubation by liquid-chromatography-coupled mass spectrometry (LC–MS); details: 2 µM
[8] = The drug is tested on Clostridium sporogenes strain: ATCC15579 for biotransformation. The drug concentrations were measured before and after a 12-h incubation by liquid-chromatography-coupled mass spectrometry (LC–MS); details: 2 µM
[9] = The drug is tested on Dorea formicigenerans strain: ATCC27755 for biotransformation. The drug concentrations were measured before and after a 12-h incubation by liquid-chromatography-coupled mass spectrometry (LC–MS); details: 2 µM
[10] = The drug is tested on Eubacterium hallii strain: DSM3353 for biotransformation. The drug concentrations were measured before and after a 12-h incubation by liquid-chromatography-coupled mass spectrometry (LC–MS); details: anaerobutyricum hallii, 2 µM
[11] = bifidobacterium adolescentis, 12 h, 2 µM
Description: The drug is tested on Bifidobacterium adolescentis strain: ATCC 15703 for biotransformation. The drug concentrations were measured before and after a 12-h incubation by liquid-chromatography-coupled mass spectrometry (LC–MS)

[12] = bacteroides eggerthii, 12 h, 2 µM
Description: The drug is tested on Bacteroides eggerthii strain: DSM20697 for biotransformation. The drug concentrations were measured before and after a 12-h incubation by liquid-chromatography-coupled mass spectrometry (LC–MS)

[13] = bacteroides fragilis, 12 h, 2 µM
Description: The drug is tested on Bacteroides fragilis strain: NCTC 9343 for biotransformation. The drug concentrations were measured before and after a 12-h incubation by liquid-chromatography-coupled mass spectrometry (LC–MS)

[14] = bacteroides fragilis, 12 h, 2 µM; remark: listed apart in the source
Description: The drug is tested on Bacteroides fragilis strain: DS-208 for biotransformation. The drug concentrations were measured before and after a 12-h incubation by liquid-chromatography-coupled mass spectrometry (LC–MS)

[15] = roseburia intestinalis, 12 h, 2 µM
Description: The drug is tested on Roseburia intestinalis strain: L1-82 for biotransformation. The drug concentrations were measured before and after a 12-h incubation by liquid-chromatography-coupled mass spectrometry (LC–MS)

[16] = bacteroides thetaiotaomicron, 12 h, 2 µM
Description: The drug is tested on Bacteroides thetaiotaomicron strain: 3731 for biotransformation. The drug concentrations were measured before and after a 12-h incubation by liquid-chromatography-coupled mass spectrometry (LC–MS)

[17] = segatella copri, 12 h, 2 µM
Description: The drug is tested on Prevotella copri strain: DSM18205 for biotransformation. The drug concentrations were measured before and after a 12-h incubation by liquid-chromatography-coupled mass spectrometry (LC–MS)

[18] = akkermansia muciniphila, 12 h, 2 µM
Description: The drug is tested on Akkermansia muciniphila strain: ATCC BAA-835 for biotransformation. The drug concentrations were measured before and after a 12-h incubation by liquid-chromatography-coupled mass spectrometry (LC–MS)

[19] = The drug is tested on Odoribacter splanchnicus strain: fecal isolate for biotransformation. The drug concentrations were measured before and after a 12-h incubation by liquid-chromatography-coupled mass spectrometry (LC–MS); details: 2 µM
[20] = The drug is tested on Bacteroides fragilis strain: HMW610 for biotransformation. The drug concentrations were measured before and after a 12-h incubation by liquid-chromatography-coupled mass spectrometry (LC–MS); details: 2 µM

SMILES | Bacterial Biotransformation [1] | Bacterial Biotransformation [2] | Bacterial Biotransformation [3] | Bacterial Biotransformation [4] | Bacterial Biotransformation [5] | Bacterial Biotransformation [6] | Bacterial Biotransformation [7] | Bacterial Biotransformation [8] | Bacterial Biotransformation [9] | Bacterial Biotransformation [10] | Bacterial Biotransformation [11] | Bacterial Biotransformation [12] | Bacterial Biotransformation [13] | Bacterial Biotransformation [14] | Bacterial Biotransformation [15] | Bacterial Biotransformation [16] | Bacterial Biotransformation [17] | Bacterial Biotransformation [18] | Bacterial Biotransformation [19] | Bacterial Biotransformation [20]
Br.COc1ccc2c(c1)[C@]13CCCC[C@@H]1[C@H](C2)N(C)CC3.O [DEXTROMETHORPHAN HYDROBROMIDE] | Compound NOT metabolized | Compound NOT metabolized | Compound NOT metabolized | Compound NOT metabolized | Compound NOT metabolized | Compound NOT metabolized | Compound NOT metabolized | Compound NOT metabolized | Compound NOT metabolized | Compound NOT metabolized | Compound NOT metabolized | Compound NOT metabolized | Compound NOT metabolized | Compound NOT metabolized | Compound NOT metabolized |  |  |  |  | 
OCCN(CCO)c1nc(N2CCCCC2)c2nc(N(CCO)CCO)nc(N3CCCCC3)c2n1 [DIPYRIDAMOLE] | Compound NOT metabolized | Compound NOT metabolized | Compound NOT metabolized | Compound NOT metabolized | Compound NOT metabolized | Compound NOT metabolized | Compound metabolized | Compound metabolized | Compound NOT metabolized | Compound NOT metabolized | Compound NOT metabolized | Compound NOT metabolized | Compound metabolized | Compound metabolized | Compound NOT metabolized | Compound NOT metabolized | Compound NOT metabolized | Compound NOT metabolized |  | 
CNCC[C@H](Oc1cccc2ccccc12)c1cccs1 [DULOXETINE] | Compound metabolized | Compound NOT metabolized | Compound metabolized |  | Compound NOT metabolized | Compound NOT metabolized | Compound metabolized |  | Compound NOT metabolized |  | Compound NOT metabolized | Compound NOT metabolized | Compound metabolized | Compound NOT metabolized | Compound NOT metabolized | Compound NOT metabolized | Compound metabolized | Compound metabolized |  | 
CC1Cc2ccccc2N1NC(=O)c1ccc(Cl)c(S(N)(=O)=O)c1 (centres undefined) [INDAPAMIDE] | Compound NOT metabolized |  | Compound NOT metabolized | Compound NOT metabolized | Compound NOT metabolized | Compound NOT metabolized | Compound NOT metabolized | Compound NOT metabolized | Compound NOT metabolized | Compound NOT metabolized | Compound NOT metabolized | Compound NOT metabolized | Compound NOT metabolized | Compound NOT metabolized | Compound NOT metabolized | Compound NOT metabolized | Compound NOT metabolized | Compound NOT metabolized | Compound NOT metabolized | 
CC(=O)O[C@]1(C(C)=O)CC[C@H]2[C@@H]3C=C(C)C4=CC(=O)CC[C@]4(C)[C@H]3CC[C@@]21C [MEGESTROL ACETATE] | Compound NOT metabolized | Compound NOT metabolized | Compound NOT metabolized |  | Compound NOT metabolized | Compound NOT metabolized | Compound metabolized |  | Compound NOT metabolized | Compound NOT metabolized | Compound metabolized | Compound metabolized | Compound metabolized | Compound metabolized | Compound NOT metabolized | Compound metabolized | Compound NOT metabolized |  | Compound metabolized | Compound metabolized
C#C[C@]1(OC(C)=O)CC[C@H]2[C@@H]3CCC4=C/C(=N/O)CC[C@@H]4[C@H]3CC[C@@]21CC [NORGESTIMATE] | Compound NOT metabolized | Compound metabolized | Compound NOT metabolized | Compound NOT metabolized | Compound NOT metabolized | Compound NOT metabolized | Compound metabolized |  | Compound NOT metabolized | Compound NOT metabolized | Compound NOT metabolized | Compound NOT metabolized | Compound NOT metabolized | Compound NOT metabolized | Compound NOT metabolized | Compound NOT metabolized | Compound NOT metabolized |  |  | Compound NOT metabolized
O=C(O)CCc1nc(-c2ccccc2)c(-c2ccccc2)o1 [OXAPROZIN] | Compound NOT metabolized | Compound metabolized | Compound NOT metabolized | Compound metabolized | Compound NOT metabolized | Compound metabolized | Compound NOT metabolized | Compound NOT metabolized | Compound NOT metabolized | Compound NOT metabolized | Compound NOT metabolized | Compound NOT metabolized | Compound metabolized | Compound metabolized |  | Compound metabolized | Compound NOT metabolized |  | Compound metabolized | Compound metabolized
Fc1ccc([C@@H]2CCNC[C@H]2COc2ccc3c(c2)OCO3)cc1 [PAROXETINE] | Compound NOT metabolized | Compound metabolized | Compound NOT metabolized | Compound NOT metabolized | Compound metabolized | Compound NOT metabolized | Compound metabolized |  | Compound NOT metabolized | Compound NOT metabolized | Compound NOT metabolized | Compound NOT metabolized | Compound NOT metabolized | Compound NOT metabolized | Compound NOT metabolized | Compound metabolized | Compound NOT metabolized | Compound NOT metabolized | Compound NOT metabolized | Compound NOT metabolized
CCCN1C[C@H](CSC)C[C@@H]2c3cccc4[nH]cc(c34)C[C@H]21.CS(=O)(=O)O [PERGOLIDE MESYLATE] | Compound NOT metabolized | Compound NOT metabolized | Compound NOT metabolized | Compound NOT metabolized | Compound NOT metabolized | Compound NOT metabolized | Compound NOT metabolized | Compound NOT metabolized | Compound NOT metabolized | Compound NOT metabolized | Compound NOT metabolized | Compound NOT metabolized | Compound NOT metabolized | Compound NOT metabolized | Compound NOT metabolized | Compound NOT metabolized | Compound NOT metabolized |  |  | 
